Experimental data as given in patent US11370825B2, “Polypeptides, cells, and methods involving engineered CD16” (Regents of the University of Minnesota, priority 2014, dated 2022).

Assays:
ADAM17 = test: Soluble CD16a released from transfected HEK293 cells stably expressing human γ chain, ELISA (shedding); format: cell-based; settings: untreated and PMA-treated HEK293 cells stably expressing human γ chain
Protocol: FIG. 3. Effects of the engineered S197P mutation on CD16a and CD16b shedding. Transfected HEK293 (human embryonic kidney) cells separately expressed CD16b and CD16b/S197P (A) or CD16a and CD16a/S197P (B) at similar levels, as determined by flow cytometry (left panels). The different transfectants were treated with or without PMA (15 ng/ml for 30 minutes at 37° C.) and soluble levels of CD16 in the media supernatant were quantified by ELISA (right panels). Each treatment condition was repeated three times for each experiment and the data are representative of three independent experiments. Bar graphs show mean±SD. Statistical significance is indicated as ***P<0.001. […] Surface levels of L-selectin and CD16b/S197P on transfected and mock-transfected cells were measured using flow cytometry (histogram plots). Transfectants expressing L-selectin or L-selectin and CD16b/S197P were incubated in the presence or absence of PMA for 30 minutes at 37° C., and the mean fluorescence intensity (MFI) of L-selectin staining determined (bar graph). […] For all histogram plots, the x-axis=Log 10 fluorescence and the y-axis=cell number.
HEK293 cells (a human embryonic kidney cell line) and NK92 cells (a human NK cell line) (ATCC, Manassas, Va.) were cultured according to the depository's instructions. […] Construct expression was assessed by EGFP fluorescence and CD16 staining, as determined by flow cytometry. […]

NK92 cells = test: Cell surface CD16a levels on transduced NK92 cells after activation, flow cytometry; format: cell-based, human
Protocol: FIG. 4. Effects of the engineered S197P mutation on CD16a shedding in NK cells. NK92 cells transduced with empty vector (vector only), CD16a, or CD16a/S197P were treated without (Unstim.) or with PMA (100 ng/ml) for 30 minutes at 37° C. (A), with IL-12 and IL-18 (100 ng/ml and 400 ng/ml, respectively) for 24 hours at 37° C. (B), or with Raji cells and rituximab for 60 minutes at 37° C. (C). Cell surface levels of CD16a were determined by flow cytometry. Isotype-matched negative control antibody staining is indicated by a dotted line. (D) Parent NK92 cells and transduced cells expressing CD16a or CD16a/S197P were treated with Raji cells and rituximab in the presence or absence of the ADAM17 inhibitor BMS566394 (5 μM) for 60 minutes at 37° C. Soluble CD16a levels were determined by ELISA. Each treatment condition was repeated three times and the data are representative of three independent experiments. Bar graphs show mean±SD. Statistical significance is indicated as ***P<0.001. (E) NK92 cells expressing CD16a or CD16a/S197P were stained with the anti-ADAM17 mAbs M220, 623, 633, or an isotype-matched negative control antibody, as indicated. (F) CD56^+CD45^+ NK cells derived from mock-transduced iPSCs (left panel) or iPSCs expressing recombinant CD16a or CD16a/S197P (right panels) were incubated with or without K562 target cells for four hours at 37° C. For all histogram plots, the x-axis=Log 10 fluorescence, the y-axis=cell number, and the data are representative of at least 3 independent experiments.
HEK293 cells (a human embryonic kidney cell line) and NK92 cells (a human NK cell line) (ATCC, Manassas, Va.) were cultured according to the depository's instructions. HEK293 cells were transiently transfected with pcDNA3.1 with or without CD16b, CD16b/S197P, and/or L-selectin using Lipofectamine 2000 (Invitrogen, Carlsbad, Calif.) according to the manufacturer's instructions. […] Construct expression was assessed by EGFP fluorescence and CD16 staining, as determined by flow cytometry. […]

Substance | soluble levels of receptor in media supernatant compared to CD16a (ADAM17) | down-regulation in cell surface expression of CD16 (NK92 cells; IL-12 100 ng/ml and IL-18 400 ng/ml, 24 hours at 37° C.) | down-regulation in cell surface expression of CD16 (NK92 cells; PMA 100 ng/ml, 30 minutes at 37° C.) | down-regulation in cell surface expression of CD16 (NK92 cells; Raji cells treated with rituximab, 60 minutes at 37° C.)
CD16a/S197P: Human CD16a (FcγRIIIa, SEQ ID NO:1) with serine-197 substituted by proline in the membrane proximal cleavage region; expressed recombinantly in cells | significantly lower levels | – | – | –
CD16a: Wild-type human IgG Fc receptor CD16a (FcγRIIIa), valine allelic variant, recombinant comparator [reference compound] | – | appreciable down-regulation | marked down-regulation | induced the down-regulation
